# The source made the active and inactive calls.
# Columns and labels:
# [1] = target: Type-1 angiotensin II receptor (Homo sapiens, UniProt P30556); assay: agonist activity at AGTR1 – cell-based, uHTS hits, selectivity assay for APJ receptor agonist project, dose response (AID 488865); type: functional;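 further: beta-arrestin recruitment to AT1 measured by enzyme fragment complementation luminescence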
# [2] = luciferase reporter signal suppression in cells – H4 neuroglioma cells, luminescence, dose response (AID 1990); type: functional, cell-based
# [3] = Luminescence Cell-Based Dose Response HTS to Identify Inhibitors of 5'UTR Stem-Loop Driven Prion Protein mRNA Translation in H4 Neuroglioblastoma Cells. [Related pubchem assays: 1827 (Project Summary), 1813 (Primary HTS)]; type: functional
# [4] = alpha-synuclein stem-loop luciferase translation blockers – H4 neuroglioma cells, luminescence, confirmation (AID 1988); type: functional, cell-based
# [5] = target: Alkaline phosphatase, placental type (Homo sapiens, UniProt P05187); assay: human placental alkaline phosphatase inhibition – biochemical, luminescence, confirmation (AID 1512); type: functional
# [6] = target: T1, Alkaline phosphatase, tissue-nonspecific isozyme (Homo sapiens, UniProt P05186); assay: potency against alkaline phosphatase TNAP – biochemical, luminescent, dose response, SAR follow-up (AID 1056)
# T1 sequence (P05186 whole entry): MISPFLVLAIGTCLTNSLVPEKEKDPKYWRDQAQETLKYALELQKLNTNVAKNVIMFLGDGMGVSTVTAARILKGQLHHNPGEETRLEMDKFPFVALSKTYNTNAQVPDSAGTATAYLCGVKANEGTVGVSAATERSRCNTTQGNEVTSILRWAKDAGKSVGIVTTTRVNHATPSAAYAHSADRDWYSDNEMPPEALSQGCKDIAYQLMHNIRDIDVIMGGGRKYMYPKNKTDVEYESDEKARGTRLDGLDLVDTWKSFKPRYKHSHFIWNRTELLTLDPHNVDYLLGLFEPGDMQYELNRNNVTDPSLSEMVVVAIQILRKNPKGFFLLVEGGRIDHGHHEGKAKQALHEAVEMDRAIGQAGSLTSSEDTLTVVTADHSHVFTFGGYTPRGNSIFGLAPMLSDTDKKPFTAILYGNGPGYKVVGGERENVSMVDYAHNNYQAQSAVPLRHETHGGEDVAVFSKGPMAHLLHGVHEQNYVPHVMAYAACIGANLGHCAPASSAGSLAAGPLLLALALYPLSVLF
# [7] = target: Glyceraldehyde-3-phosphate dehydrogenase (Homo sapiens, UniProt P04406)
# [8] = target: DNA damage-inducible transcript 3 protein (Mus musculus, UniProt P35639); type: functional, Cricetulus griseus
# Sequence of DNA damage-inducible transcript 3 protein (P35639 whole entry): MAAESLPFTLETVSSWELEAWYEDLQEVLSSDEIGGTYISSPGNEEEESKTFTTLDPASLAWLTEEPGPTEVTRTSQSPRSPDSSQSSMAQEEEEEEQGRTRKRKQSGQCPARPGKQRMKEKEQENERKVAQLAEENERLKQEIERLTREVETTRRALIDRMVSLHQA
# [9] = target: X-box-binding protein 1 (Homo sapiens, UniProt P17861); type: functional, Cricetulus griseus;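 further: confirmatory dose-response counter-screen serving a CHOP assay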
# Sequence of X-box-binding protein 1 (P17861 whole entry): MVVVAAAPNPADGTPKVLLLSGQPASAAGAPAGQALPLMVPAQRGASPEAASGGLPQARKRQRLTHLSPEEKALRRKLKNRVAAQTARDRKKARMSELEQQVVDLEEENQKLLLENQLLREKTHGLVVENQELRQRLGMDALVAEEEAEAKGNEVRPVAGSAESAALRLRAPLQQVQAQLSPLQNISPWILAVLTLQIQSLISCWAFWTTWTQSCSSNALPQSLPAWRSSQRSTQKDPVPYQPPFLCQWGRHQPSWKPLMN
# [10] = Luminescence Cell-Based Dose Retest to Confirm Inhibitors of Cancer Stem Cells. [Related pubchem assays (depositor defined):AID2717, AID2721]; type: functional; details: Homo sapiens
# [11] = target: 1-acylglycerol-3-phosphate O-acyltransferase ABHD5/Perilipin-5 (Homo sapiens, UniProt Q00G26+Q8WTS1); assay: Luminescence-based biochemical high throughput dose response assay for inhibitors of the interaction of the lipase co-activator protein, abhydrolase domain containing 5 (ABHD5) with perilipin-5 (MLDP; PLIN5) (2K validation set). [Related pubchem assays (depositor defined):AID493035, AID493241]
# [12] = target: Perilipin-1/ABHD5 (Homo sapiens, UniProt O60240+Q8WTS1); assay: Luminescence-based biochemical high throughput dose response assay for inhibitors of the interaction of the lipase co-activator protein, abhydrolase domain containing 5 (ABHD5) with perilipin-1 (PLIN1) (2K validation set). [Related pubchem assays (depositor defined):AID493027, AID493057]
# Sequence of Perilipin-1/ABHD5 (Q8WTS1 whole entry, the tested form may be a part): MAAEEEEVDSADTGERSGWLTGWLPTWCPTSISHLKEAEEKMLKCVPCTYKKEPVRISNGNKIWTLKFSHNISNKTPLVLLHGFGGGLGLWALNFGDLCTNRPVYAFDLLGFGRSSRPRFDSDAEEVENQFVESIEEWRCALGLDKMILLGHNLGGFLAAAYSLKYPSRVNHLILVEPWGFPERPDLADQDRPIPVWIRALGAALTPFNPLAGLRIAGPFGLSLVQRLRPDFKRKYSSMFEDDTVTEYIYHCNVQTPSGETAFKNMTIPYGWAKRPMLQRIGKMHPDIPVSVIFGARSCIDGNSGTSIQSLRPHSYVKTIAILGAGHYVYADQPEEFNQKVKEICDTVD
# Sequence of Perilipin-1/ABHD5 (O60240 whole entry, the tested form may be a part): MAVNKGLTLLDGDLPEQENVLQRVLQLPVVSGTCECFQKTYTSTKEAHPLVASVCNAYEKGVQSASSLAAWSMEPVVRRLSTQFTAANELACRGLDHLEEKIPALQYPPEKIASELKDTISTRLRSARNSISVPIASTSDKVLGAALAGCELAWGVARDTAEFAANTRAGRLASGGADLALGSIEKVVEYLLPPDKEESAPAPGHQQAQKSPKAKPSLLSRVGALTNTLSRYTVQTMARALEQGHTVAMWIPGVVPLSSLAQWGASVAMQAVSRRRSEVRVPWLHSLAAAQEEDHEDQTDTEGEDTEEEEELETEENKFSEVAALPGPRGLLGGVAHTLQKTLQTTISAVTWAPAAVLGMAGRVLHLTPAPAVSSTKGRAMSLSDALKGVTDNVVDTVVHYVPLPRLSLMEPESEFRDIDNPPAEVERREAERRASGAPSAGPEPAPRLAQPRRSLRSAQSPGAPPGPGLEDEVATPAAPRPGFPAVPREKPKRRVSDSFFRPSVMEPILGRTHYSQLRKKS
# [13] = target: Caspase-7 (Homo sapiens, UniProt P55210); assay: activation of caspase-7 zymogen – biochemical, absorbance, counter-screen for procaspase-3 activator project, dose response (AID 489013)
# Sequence of Caspase-7 (P55210 24-198 limits assumed): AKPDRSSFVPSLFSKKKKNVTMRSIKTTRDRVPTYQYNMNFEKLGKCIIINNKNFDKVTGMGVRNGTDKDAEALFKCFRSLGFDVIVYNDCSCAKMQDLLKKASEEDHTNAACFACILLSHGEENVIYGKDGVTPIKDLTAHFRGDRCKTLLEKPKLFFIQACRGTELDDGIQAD
# Sequence of Caspase-7 (P55210 207-303 limits assumed): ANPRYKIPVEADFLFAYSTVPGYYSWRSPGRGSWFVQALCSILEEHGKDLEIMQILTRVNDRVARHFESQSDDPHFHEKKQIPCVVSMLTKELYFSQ
# [14] = target: T2, Caspase-3 (Homo sapiens, UniProt P42574); assay: activation of caspase-3 zymogen – biochemical, absorbance, dose response (AID 489014)
# T2 sequence (P42574 whole entry): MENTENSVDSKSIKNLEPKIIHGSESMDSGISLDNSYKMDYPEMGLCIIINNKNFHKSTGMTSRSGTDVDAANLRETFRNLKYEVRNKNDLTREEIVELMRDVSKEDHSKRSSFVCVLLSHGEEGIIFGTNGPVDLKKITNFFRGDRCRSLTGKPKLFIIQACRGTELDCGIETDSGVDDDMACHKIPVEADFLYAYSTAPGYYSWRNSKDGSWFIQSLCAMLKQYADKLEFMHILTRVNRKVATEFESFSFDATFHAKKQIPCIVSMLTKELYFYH
# [15] = tested on: T-cell; assay: loss of vesicle association with mouse CD8+ T cells – mouse 2C CD8+ T cells, flow cytometry, dose response (AID 485284); type: functional
# [16] = viability loss in HeLa cells – cytotoxicity control for MgcRacGAP inhibitor project, dose response (AID 624300); type: functional
# [17] = target: T3, Rac GTPase-activating protein 1 (Homo sapiens, UniProt Q9H0H5); assay: blockers of MgcRacGAP-driven Rac1 GTP hydrolysis – biochemical, ADP Hunter fluorescence, primary and confirmatory, confirmation (AID 624330); type: functional
# T3 sequence (Q9H0H5 whole entry): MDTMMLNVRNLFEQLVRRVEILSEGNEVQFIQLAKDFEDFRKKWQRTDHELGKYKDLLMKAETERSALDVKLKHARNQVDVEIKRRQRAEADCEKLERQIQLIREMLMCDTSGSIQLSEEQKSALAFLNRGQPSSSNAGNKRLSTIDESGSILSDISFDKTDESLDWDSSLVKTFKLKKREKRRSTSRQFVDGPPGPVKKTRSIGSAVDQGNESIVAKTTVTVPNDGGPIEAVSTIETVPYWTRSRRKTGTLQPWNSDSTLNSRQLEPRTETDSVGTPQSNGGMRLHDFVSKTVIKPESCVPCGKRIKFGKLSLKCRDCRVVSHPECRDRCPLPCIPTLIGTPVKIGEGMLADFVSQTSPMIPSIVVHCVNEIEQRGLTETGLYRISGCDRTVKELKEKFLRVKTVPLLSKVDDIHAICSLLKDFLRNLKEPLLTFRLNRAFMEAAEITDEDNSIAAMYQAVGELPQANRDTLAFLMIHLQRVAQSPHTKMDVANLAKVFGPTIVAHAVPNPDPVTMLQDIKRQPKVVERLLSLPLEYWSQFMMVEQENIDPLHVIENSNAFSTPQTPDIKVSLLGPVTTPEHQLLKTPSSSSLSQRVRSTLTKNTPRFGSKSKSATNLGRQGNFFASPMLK
# [18] = target: Glucose-6-phosphate 1-dehydrogenase (Homo sapiens, UniProt P11413); assay: inhibition of Homo sapiens G6PD, dose series – biochemical, fluorescence, selectivity assay for P. falciparum G6PD inhibitor project, dose response (AID 504792); type: functional
# Sequence of Glucose-6-phosphate 1-dehydrogenase (P11413 whole entry): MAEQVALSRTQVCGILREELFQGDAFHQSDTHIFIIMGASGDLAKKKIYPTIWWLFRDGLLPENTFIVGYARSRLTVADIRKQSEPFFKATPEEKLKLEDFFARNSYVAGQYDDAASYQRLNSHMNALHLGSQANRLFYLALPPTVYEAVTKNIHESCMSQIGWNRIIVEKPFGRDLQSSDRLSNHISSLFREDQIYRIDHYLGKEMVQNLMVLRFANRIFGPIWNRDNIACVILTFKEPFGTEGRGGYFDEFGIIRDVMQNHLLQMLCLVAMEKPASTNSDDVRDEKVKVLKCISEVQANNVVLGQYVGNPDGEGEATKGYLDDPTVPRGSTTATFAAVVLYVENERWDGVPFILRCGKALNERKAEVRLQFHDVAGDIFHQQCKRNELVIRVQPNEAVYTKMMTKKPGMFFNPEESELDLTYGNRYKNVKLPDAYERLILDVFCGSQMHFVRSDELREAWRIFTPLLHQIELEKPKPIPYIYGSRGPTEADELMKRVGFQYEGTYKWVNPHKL
# [19] = target: Phosphomannomutase 2 (Homo sapiens, UniProt O15305); assay: Counter screen SAR assay for PMM2 inhibitors via a fluorescence intensity assay. [Related pubchem assays (depositor defined):AID1545, AID1574]
# Sequence of Phosphomannomutase 2 (O15305 whole entry): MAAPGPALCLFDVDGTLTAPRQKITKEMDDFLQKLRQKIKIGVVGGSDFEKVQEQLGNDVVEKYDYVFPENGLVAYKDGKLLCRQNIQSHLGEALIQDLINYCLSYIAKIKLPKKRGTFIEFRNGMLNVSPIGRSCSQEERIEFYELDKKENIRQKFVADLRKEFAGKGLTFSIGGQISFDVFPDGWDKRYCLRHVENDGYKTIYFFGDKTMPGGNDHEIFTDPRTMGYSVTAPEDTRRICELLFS
# [20] = target: Phosphoethanolamine/phosphocholine phosphatase (Homo sapiens, UniProt Q8TCT1); assay: SAR assay for compounds that inhibit PHOSPHO1. [Related pubchem assays (depositor defined):AID1545, AID1565, AID1574]
# Sequence of Phosphoethanolamine/phosphocholine phosphatase (Q8TCT1 whole entry): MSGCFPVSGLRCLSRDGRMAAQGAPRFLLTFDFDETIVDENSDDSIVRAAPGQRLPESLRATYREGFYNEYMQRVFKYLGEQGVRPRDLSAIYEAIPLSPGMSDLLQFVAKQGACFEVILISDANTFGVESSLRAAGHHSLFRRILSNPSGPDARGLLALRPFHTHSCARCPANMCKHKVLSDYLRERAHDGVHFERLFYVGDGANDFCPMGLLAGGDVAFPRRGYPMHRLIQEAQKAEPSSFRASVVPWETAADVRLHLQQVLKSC
# [21] = target: DNA dC->dU-editing enzyme APOBEC-3G (Homo sapiens, UniProt Q9HC16); assay: Dose Response confirmation of small molecule APOBEC3G DNA Deaminase Inhibitors via a fluorescence-based single-stranded DNA deaminase assay. [Related pubchem assays (depositor defined):AID493012, AID493028]; type: functional
# [22] = target: DNA dC->dU-editing enzyme APOBEC-3A (Homo sapiens, UniProt P31941); assay: A3A deaminase inhibition for selectivity – biochemical, dose response (AID 504722); type: functional
# Sequence of DNA dC->dU-editing enzyme APOBEC-3A (P31941 whole entry): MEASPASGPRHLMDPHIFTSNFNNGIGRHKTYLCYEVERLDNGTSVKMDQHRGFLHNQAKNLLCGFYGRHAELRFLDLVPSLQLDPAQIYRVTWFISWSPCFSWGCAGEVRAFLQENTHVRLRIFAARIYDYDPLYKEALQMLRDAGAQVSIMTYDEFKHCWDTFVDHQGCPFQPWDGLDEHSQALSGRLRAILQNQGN
# [23] = NIH/3T3 cell viability loss – mouse embryonic fibroblasts, dry powder, set 2, cytotoxicity control, dose response (AID 493247); type: functional, cell-based; details: Fibroblast
# [24] = tested on: Trypanosoma cruzi; assay: anti-trypanosomal activity in host cells – cell-based, plate reader, dry powder, set 3, dose response (AID 493197); type: functional
# [25] = target: T4, Kappa-type opioid receptor (Homo sapiens, UniProt P41145); assay: SAR analysis of Antagonists of the Kappa Opioid Receptor (KOR) using an Image-Based Assay - Set 4. [Related pubchem assays (depositor defined):AID1777, AID1785]; type: functional
# T4 sequence (P41145 whole entry): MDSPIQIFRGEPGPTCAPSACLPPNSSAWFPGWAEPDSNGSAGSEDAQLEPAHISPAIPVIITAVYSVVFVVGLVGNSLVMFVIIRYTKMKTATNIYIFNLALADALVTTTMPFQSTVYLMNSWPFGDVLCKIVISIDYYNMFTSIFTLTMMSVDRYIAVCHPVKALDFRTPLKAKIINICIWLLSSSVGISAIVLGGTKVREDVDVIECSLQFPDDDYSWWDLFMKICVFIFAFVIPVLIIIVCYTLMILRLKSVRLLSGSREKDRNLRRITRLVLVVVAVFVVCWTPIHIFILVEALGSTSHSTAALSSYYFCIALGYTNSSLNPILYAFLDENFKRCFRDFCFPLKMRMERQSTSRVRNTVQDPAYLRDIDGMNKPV
# [26] = target: T4, Kappa-type opioid receptor; assay: SAR analysis of small molecule antagonists of the kappa opioid receptor via a luminescent beta-arrestin assay - Set 4. [Related pubchem assays (depositor defined):AID1777, AID1778, AID1785, AID1786, AID1966, AID2133, AID2136, AID2285]; type: functional
# [27] = target: Mu-type opioid receptor (Homo sapiens, UniProt P35372); assay: SAR Analysis of Antagonists of the MOR Receptor using an Image-Based Assay - Set 3. [Related pubchem assays (depositor defined):AID1777, AID1785, AID1786, AID1966, AID2133, AID2136, AID2284, AID2285, AID2420]; type: functional
# [28] = target: Delta-type opioid receptor (Homo sapiens, UniProt P41143); assay: SAR Analysis of Antagonists of the DOR Receptor using an Image-Based Assay - Set 3. [Related pubchem assays (depositor defined):AID1777, AID1785]; type: functional;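 further: U2OS cells expressing DOR1 and beta-arrestin GFP stimulated with 100 nM SNC80; imaging of GFP-tagged beta-arrestin moving into spots after receptor activation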
# Sequence of Delta-type opioid receptor (P41143 whole entry): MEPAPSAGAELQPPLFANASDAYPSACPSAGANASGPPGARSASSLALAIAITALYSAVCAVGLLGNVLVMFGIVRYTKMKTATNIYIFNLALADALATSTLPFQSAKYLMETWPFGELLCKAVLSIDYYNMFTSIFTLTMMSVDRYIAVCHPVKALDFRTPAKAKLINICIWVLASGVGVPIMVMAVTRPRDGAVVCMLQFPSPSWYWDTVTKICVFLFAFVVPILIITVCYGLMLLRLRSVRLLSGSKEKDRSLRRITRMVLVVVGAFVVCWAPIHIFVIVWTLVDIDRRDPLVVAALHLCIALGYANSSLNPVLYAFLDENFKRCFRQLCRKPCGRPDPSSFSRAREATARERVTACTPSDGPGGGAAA
# [29] = target: T4, Kappa-type opioid receptor; assay: SAR analysis of small molecule antagonists of the kappa opioid receptor via a luminescent beta-arrestin assay - Set 6. [Related pubchem assays (depositor defined):AID1777, AID1778, AID1785, AID1786, AID1966, AID2133, AID2136, AID2285]; type: functional
# [30] = target: Hexokinase (Trypanosoma brucei, UniProt Q38C41); assay: Confirmation assay for inhibitors of Trypanosoma brucei hexokinase 1-Analogue-first series. [Related pubchem assays (depositor defined):AID1430, AID1632, AID2516, AID2560, AID2579, AID2600, AID449725, AID492951]; type: functional
# Sequence of Hexokinase (Q38C41 whole entry): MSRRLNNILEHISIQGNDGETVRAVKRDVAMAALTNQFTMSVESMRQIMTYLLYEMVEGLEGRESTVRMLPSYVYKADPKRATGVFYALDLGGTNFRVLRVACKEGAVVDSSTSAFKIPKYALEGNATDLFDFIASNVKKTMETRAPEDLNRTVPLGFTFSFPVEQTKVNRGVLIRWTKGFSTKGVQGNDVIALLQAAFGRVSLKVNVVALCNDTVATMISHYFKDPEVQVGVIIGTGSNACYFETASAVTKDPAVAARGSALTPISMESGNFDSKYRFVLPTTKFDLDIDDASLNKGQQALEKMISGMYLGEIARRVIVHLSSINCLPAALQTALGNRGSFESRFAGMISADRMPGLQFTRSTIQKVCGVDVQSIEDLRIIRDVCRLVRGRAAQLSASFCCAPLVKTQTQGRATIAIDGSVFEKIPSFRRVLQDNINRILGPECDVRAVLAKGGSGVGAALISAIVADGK
# [31] = target: Dual specificity protein phosphatase 3 (Homo sapiens, UniProt P51452); assay: SAR VHR1 Fluorescent Assay for In Vitro dose response studies Set 2. [Related pubchem assays (depositor defined):AID1654, AID1661, AID1878]; type: functional
# Sequence of Dual specificity protein phosphatase 3 (P51452 whole entry): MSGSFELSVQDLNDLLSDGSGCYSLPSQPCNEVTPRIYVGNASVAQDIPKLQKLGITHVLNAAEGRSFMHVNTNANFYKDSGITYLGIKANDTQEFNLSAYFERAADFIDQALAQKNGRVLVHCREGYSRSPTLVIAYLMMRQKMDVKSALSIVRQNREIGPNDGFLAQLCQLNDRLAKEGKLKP
# [32] = target: T5, Tyrosine-protein phosphatase non-receptor type 7 (Homo sapiens, UniProt P35236); assay: SAR analysis of chemical inhibitors of HePTP using a Fluorescent assay - Set 2. [Related pubchem assays (depositor defined):AID1059, AID1077, AID1661, AID2085, AID521]; type: functional
# T5 sequence (P35236 whole entry): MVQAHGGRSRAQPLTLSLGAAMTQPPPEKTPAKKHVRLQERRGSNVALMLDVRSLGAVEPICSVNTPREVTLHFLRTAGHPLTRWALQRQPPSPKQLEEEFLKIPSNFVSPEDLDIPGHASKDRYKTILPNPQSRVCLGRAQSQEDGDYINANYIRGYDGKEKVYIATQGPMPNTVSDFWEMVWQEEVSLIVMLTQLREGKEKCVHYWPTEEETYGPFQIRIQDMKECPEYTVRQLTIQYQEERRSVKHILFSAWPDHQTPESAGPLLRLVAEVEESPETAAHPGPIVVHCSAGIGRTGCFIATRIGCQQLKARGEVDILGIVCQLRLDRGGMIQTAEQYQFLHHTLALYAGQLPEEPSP
# [33] = target: Sphingosine 1-phosphate receptor 4 (Homo sapiens, UniProt O95977); assay: potency of S1P4 activators – cell-based, fluorescence, synthesized compounds, late-stage follow-up (AID 463107); type: functional
# Sequence of Type-1 angiotensin II receptor (P30556 whole entry, the tested form may be a part): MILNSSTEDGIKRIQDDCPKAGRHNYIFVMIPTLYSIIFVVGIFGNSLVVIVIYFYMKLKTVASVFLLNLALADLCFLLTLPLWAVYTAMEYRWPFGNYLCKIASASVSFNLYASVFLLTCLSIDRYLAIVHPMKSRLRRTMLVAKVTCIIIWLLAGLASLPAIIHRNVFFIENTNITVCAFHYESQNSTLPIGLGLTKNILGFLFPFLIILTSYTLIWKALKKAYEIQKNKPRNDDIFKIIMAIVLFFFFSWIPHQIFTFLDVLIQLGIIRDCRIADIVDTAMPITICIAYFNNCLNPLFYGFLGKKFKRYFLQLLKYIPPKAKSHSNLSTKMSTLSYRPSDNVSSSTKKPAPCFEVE
smiles,measurement,setting,value
CCc1nnc(NC(=O)CSc2nc3cccnc3n2C2CCCCC2)s1,EC50,[1],> 100 µM (inactive)
same,EC50,[2],23.2 µM (active)
same,EC50,[3],> 120 µM (not active)
same,EC50,[4],13.3 µM (active)
CCN(CC)C(=O)CSc1nnc(-c2ccccc2OC)[nH]1,IC50,[5],> 100 µM (inactive)
same,IC50,[6],17.6 µM (active)
same,IC50,[7],> 100 µM (not active)
Oc1ccccc1-n1c(-c2ccccc2)ccc1-c1ccccc1,Absolute IC50 (CHOP),[8],10 µM
same,Absolute IC50 (XBP1),[9],10 µM
same,AC50,[10],4.28 µM (active)
COc1cccc(/C=C/C(=O)c2c(O)cc(C)oc2=O)c1O,IC50,[11],9.96 µM (active)
same,IC50,[12],6.79 µM (active)
CC1(C)Cc2c(c(N3CCCC3)nc3sc(C(=O)Nc4ccccc4)c(N)c23)CO1,EC50,[13],> 85.3 µM (inactive)
same,EC50,[14],> 85.3 µM (inactive)
Cc1ccc(C)c(-n2sc3ccc(F)cc3c2=O)c1,EC50,[15],3.62 µM (active)
same,CC50,[16],67.5 µM (active)
same,IC50,[17],34 µM (active)
same,IC50,[18],11.3 µM (active)
same,IC50,[19],31.3 µM (active)
same,IC50,[20],7.43 µM (inactive)
same,IC50,[21],13.5 µM (active)
same,IC50,[6],> 100 µM (inactive)
same,IC50,[22],> 100 µM (inactive)
O=C(CCc1ccccc1)N/N=C/c1ccc([N+](=O)[O-])o1,AC50,[23],26.3 µM (active)
same,AC50,[24],0.335 µM (active)
CCCCc1ccc(S(=O)(=O)NCc2ccc(C(=O)NCCN(Cc3ccccc3)C(C)C)cc2)cc1,IC50,[25],0.168 µM (active)
same,IC50,[26],3.01 µM (active)
same,IC50,[27],> 32 µM (inactive)
same,IC50,[28],> 32 µM (inactive)
same,IC50,[29],4.73 µM (active)
O=c1c(Br)csn1-c1ccc(Br)cc1,IC50,[30],11.1 µM (active)
COc1ccc(OC)c(C(=S)NCc2cccc(F)c2)c1,IC50,[31],65.2 µM (active)
same,IC50,[32],64 µM (active)
Cc1ccc(OCCOc2ccccc2C(F)(F)F)c([N+](=O)[O-])n1,EC50,[33],> 50 µM (inactive)

# Source: ChEMBL document CHEMBL1201862, “PubChem BioAssay data set” (2004)
